Where a SMILES comes first, the peptide text is derived from it. [ ]: non-standard residue; d: D form. ξ: configuration not given here. Aoe(9ξ) = N[C@@H](CCCCCC(=O)C1CO1)C(=O)O; dPip = O=C(O)[C@H]1CCCCN1
Columns and labels:
Assay type in all cases: cell-based, human
[1] = test system: normal esophageal epithelium cell line EACN42; experiment: FDA library drug sensitivity testing (CellTiter-Glo, 72 h), normal control cells; parameters: key to DSS: modified drug sensitivity score (DSSmod) from dose-response curve fit; conditions: EACN42 normal esophageal cells, 72 h; for EC50: cell viability (ATP), max test concentration 10μM; for DSS: drug sensitivity score
Summary of the method: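 HPV E6-E7-immortalized normal human esophageal epithelial cells, 1000 per well, exposed 72 h at 37 °C to drugs in duplicate from 10μM top concentration across a 20,000-fold range. Viability by ATP bioluminescence; DMSO wells as negative control; curves scored with modified drug sensitivity score (DSSmod).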

[2] = test system: EAC42 cells; experiment: FDA library drug sensitivity testing (CellTiter-Glo, 72 h); conditions: for sDSSmod: sDSSmod = DSSmod (patient cells) - DSSmod (normal cells)
Summary of the method: (§1)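 1000 cells/well exposed 72 h at 37 °C to drugs in duplicate, top concentration 10μM over a 20,000-fold range; DMSO wells as negative controls. Viability by ATP bioluminescence (CellTiter-Glo). Curves scored with the modified drug sensitivity score (DSSmod/sDSSmod).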

[3] = test system: EAC47 cells; experiment: as above; conditions: for sDSSmod: sDSSmod = DSSmod (patient cells) - DSSmod (normal cells)
Summary of the method: as §1

[4] = test system: EAC42 cells; experiment: Clonogenic survival assay
Procedure: (§2) Clonogenic assays were performed as described previously. […] Colony formation was evaluated 14 days after seeding. All experiments were performed in triplicates and two biological replicates. Statistical analyses were performed in GraphPad prism.

[5] = test system: EAC47 cells; experiment: Clonogenic survival assay
Procedure: as §2

[6] = test system: SK-GT2 cells; experiment: FDA library drug sensitivity testing (CellTiter-Glo, 72 h); conditions: SK-GT2; sDSSmod = DSSmod (patient cells) - DSSmod (normal cells)
Summary of the method: as §1

[7] = test system: EAC47 cells; experiment: Epigenetic compound library screen (CellTiter-Glo, 72 h); conditions: EAC47, 6μM; for cytotoxicity at 6 µM: Homo sapiens, read-out: % cell killing /control; for cytotoxicity at 6 µM / % cell killing /control: 72 h
Procedure: (§3) We tested a 163 compound epigenetic library that consists of inhibitors and activators of epigenetic modifying enzymes (writers, erasers and readers). All compounds were dissolved in 100% DMSO and tested in duplicate at a nominal test concentration of 6μM. Wells with assay buffer containing DMSO served as negative controls. 1000 exponentially growing cells were seeded per well in 384-well micro-titer plates and incubated in the presence of compounds in a humidified environment at 37°C and 5% CO2. After 72 hours of treatment, cell viability was assessed by measuring ATP levels via bioluminescence (CellTiter-Glo, Promega). […] Curve fitting and statistical analyses are performed in GraphPad prism.

[8] = test system: OE33 cells; experiment: as above; conditions: OE33, 6μM; for cytotoxicity at 6 µM: Homo sapiens, read-out: % cell killing /control
Procedure: as §3

[9] = test system: Flo-1 cells; experiment: as above; conditions: Flo-1, 6μM; for cytotoxicity at 6 µM: Homo sapiens, read-out: % cell killing /control
Procedure: as §3

[10] = test system: OE19 cells; experiment: FDA library drug sensitivity testing (CellTiter-Glo, 72 h); conditions: sDSSmod = DSSmod (patient cells) - DSSmod (normal cells)
Summary of the method: as §1

[11] = test system: OE33 cells; experiment: as above; conditions: OE33; sDSSmod = DSSmod (patient cells) - DSSmod (normal cells)
Summary of the method: as §1

[12] = test system: Flo-1 cells; experiment: as above; conditions: Flo-1; sDSSmod = DSSmod (patient cells) - DSSmod (normal cells)
From the text: OE33, OE19 and SKGT2 human esophageal adenocarcinoma cell lines were obtained from the European Collection of Cell Culture ([…]). Flo1, EAC42 and EAC47 cells were established in the Capobianco Laboratory. EAC42 and EAC47 human esophageal adenocarcinoma cell lines are derived from patients undergoing surgery at the Miller School of Medicine, University of Miami. The Capobianco laboratory obtained written informed consent from all patients and approval from the Institutional Research Ethics Committee.
Drug sensitivity testing (DST) was performed as described previously. […] Individual drugs were dissolved in 100% DMSO and tested in duplicates starting at a maximal test concentration of 10μM then over a 20,000-fold concentration range to generate dose response curves. Wells with assay buffer containing DMSO served as negative controls. 1000 exponentially growing cells were seeded per well in 384-well micro-titer plates and incubated in the presence of compounds in a humidified environment at 37°C and 5% CO2. After 72 hours of treatment, cell viability was assessed by measuring ATP levels via bioluminescence (CellTiter-Glo, Promega) according to manufactures recommendations. Interpretation of curve parameters was performed according to the modified drug sensitivity scoring (DSSmod) function developed by Swords et al. As a final step, the selective DSSmod (sDSSmod) for each drug in each patient screen is calculated according to the formula sDSSmod = DSSmod (patient cells)—DSSmod (normal cells). Given in this way, the sDSSmod incorporated information on each drug’s potency, efficacy, effect range and therapeutic index, making it possible to prioritize compounds over multiple parameters using a single numerical metric. In addition, this methodology allows us to rank compounds by cancer-selective efficacy for each individual patient. […] All calculations and scoring routines are implemented in MatLab and additional curve fitting and statistical analyses are performed in GraphPad prism.

SMILES: N.N.[Cl][Pt][Cl] [Cisplatin]
- treatment response in words [1]: minimal treatment effects
- EC50 [1]: 10 nM
- DSS [1]: 0
- reduction of cell survival in words ([2]; EAC42, concentration of 10μM): did not result in a reduction of cell survival
- reduction of cell survival in words ([3]; EAC47, concentration of 10μM): did not result in a reduction of cell survival
- clonogenic survival ([4]; EAC42, 10μM cisplatin for 24h): 89.19%
- clonogenic survival ([4]; EAC42, 50μM cisplatin for 24h): 50.1%
- clonogenic survival ([5]; EAC47, 10μM cisplatin for 24h): 95.75%
- clonogenic survival ([5]; EAC47, 50μM cisplatin for 24h): 28.64%

SMILES: CCN(CC)C(=S)SSC(=S)N(CC)CC [Disulfiram]
- DSS [1]: 0
- sDSSmod ([2]; EAC42): 7.112
- sDSSmod [6]: 10.36
- cytotoxicity at 6 µM [7]: 33.9%

SMILES: O=Nc1ccc(O)c2ncccc12 [NSC-3852]
- % cell killing /control [8]: 42.71%

SMILES: COc1ccc(-c2nc(N3CCOCC3)c3sc(CN(C)c4ncc(C(=O)NO)cn4)cc3n2)cn1 [CUDC-907]
- cytotoxicity at 6 µM [7]: 115%
- cytotoxicity at 6 µM [9]: 99.7%
- cytotoxicity at 6 µM [8]: 99.4%

SMILES: CC(/C=C/C(=O)NO)=C\[C@@H](C)C(=O)c1ccc(N(C)C)cc1 [Trichostatin A]
- % cell killing /control [7]: 109.49%
- % cell killing /control [9]: 96.32%
- % cell killing /control [8]: 98.02%

SMILES: Nc1ccccc1NC(=O)c1ccc(CNC(=O)OCc2cccnc2)cc1 [Entinostat (MS-275), Entinostat]
- cytotoxicity at 6 µM [7]: 36.6%
- cytotoxicity at 6 µM [9]: 43.3%
- cytotoxicity at 6 µM [8]: 76%

SMILES: CCN(CC)Cc1ccc2cc(COC(=O)Nc3ccc(C(=O)NO)cc3)ccc2c1 [Givinostat (ITF2357), Givinostat]
- cytotoxicity at 6 µM [7]: 96.8%
- cytotoxicity at 6 µM [9]: 90.9%
- cytotoxicity at 6 µM [8]: 87.7%

SMILES: O=C(CCCCC[C@@H]1NC(=O)[C@H]2CCCCN2C(=O)[C@H](Cc2ccccc2)NC(=O)[C@H](Cc2ccccc2)NC1=O)C1CO1 (stereo partly shown) [Trapoxin A] (cyclo(FF[dPip][Aoe(9ξ)]))
- cytotoxicity at 6 µM [7]: 102%
- cytotoxicity at 6 µM [9]: 96.4%
- cytotoxicity at 6 µM [8]: 98.9%

SMILES: CN(C)c1ccc(C(=O)NCCCCCCC(=O)NO)cc1 [M-344]
- % cell killing /control [9]: 56.82%
- % cell killing /control [8]: 68.75%

SMILES: O=C(CCCCCCC(=O)Nc1ccccc1)NO [SAHA]
- % cell killing /control [9]: 46.32%

SMILES: Cn1cc(CNCC2CCN(c3ncc(C(=O)NO)cn3)CC2)c2ccccc21 [JNJ-26481585]
- % cell killing /control [7]: 113.73%
- % cell killing /control [9]: 98.39%
- % cell killing /control [8]: 99.54%

SMILES: O=C(CCCCCN1C(=O)c2cccc3cccc(c23)C1=O)NO [Scriptaid]
- cytotoxicity at 6 µM [9]: 32.5%

SMILES: Nc1ncnc2c1c(I)cn2[C@@H]1O[C@H](CO)[C@@H](O)[C@H]1O [5-Iodotubercidin]
- % cell killing /control [9]: 50.40%

SMILES: CC(C)[C@H](C(=O)Nc1ccc(C(=O)NO)cc1)c1ccccc1 [(S)-HDAC-42]
- cytotoxicity at 6 µM [7]: 76.5%
- cytotoxicity at 6 µM [9]: 84.6%
- cytotoxicity at 6 µM [8]: 89.3%

SMILES: O=C(/C=C/c1cccc(C(=O)NO)c1)NO [CBHA]
- % cell killing /control [7]: 20.30%

SMILES: Cc1sc2c(c1C)C(c1ccc(Cl)cc1)=N[C@@H](CC(N)=O)c1nnc(C)n1-2 [CPI203]
- sensitivity in words [7]: sensitivity
- % cell killing /control [7]: 43.29%
- % cell killing /control [9]: 48.79%

SMILES: CC1(C)CCC2=C(O1)c1ccccc1C(=O)C2=O [β-Lapachone]
- cytotoxicity at 6 µM [9]: 40.9%

SMILES: CCCCc1nc2cc(/C=C/C(=O)NO)ccc2n1CCN(CC)CC [SB 939]
- cytotoxicity at 6 µM [9]: 78.8%
- cytotoxicity at 6 µM [8]: 98.9%

SMILES: CC[C@@H]1C(=O)N(C)c2cnc(Nc3ccc(C(=O)NC4CCN(C)CC4)cc3OC)nc2N1C1CCCC1 [BI-2536]
- cytotoxicity at 6 µM [7]: 39.5%
- cytotoxicity at 6 µM [9]: 95.9%
- cytotoxicity at 6 µM [8]: 77.6%

SMILES: Nc1ccn([C@@H]2O[C@H](CO)[C@@H](O)C2(F)F)c(=O)n1 [Gemcitabine]
- EC50 [1]: 320 nM
- DSS [1]: 17.72
- sDSSmod ([2]; EAC42): 14.66
- EC50 ([2]; Homo sapiens, EAC42, assay not stated explicitly, taken as DST screen, read-out: calculated EC50): 6.6 nM
- sDSSmod ([3]; EAC47): 8.407
- EC50 ([3]; Homo sapiens, EAC47, assay not stated explicitly, taken as DST screen, read-out: calculated EC50): 10.7 nM
- sDSSmod [10]: -16.819
- sDSSmod [11]: 9.443
- sDSSmod [12]: -5
- clonogenic survival ([4]; EAC42, 10nM gemcitabine for 2h, colonies after 14 days): 59.26%
- clonogenic survival ([5]; EAC47, 10nM gemcitabine for 2h, colonies after 14 days): 63.28%

SMILES: O=C(/C=C/c1cccc(S(=O)(=O)Nc2ccccc2)c1)NO [PXD101]
- cytotoxicity at 6 µM [9]: 77.6%
- cytotoxicity at 6 µM [8]: 92.3%

SMILES: CO[C@H]1C[C@@H]2CC[C@@H](C)[C@@](O)(O2)C(=O)C(=O)N2CCCC[C@H]2C(=O)O[C@H]([C@H](C)C[C@@H]2CC[C@@H](OC(=O)C(C)(CO)CO)[C@H](OC)C2)CC(=O)[C@H](C)/C=C(\C)[C@@H](O)[C@@H](OC)C(=O)[C@H](C)C[C@H](C)/C=C/C=C/C=C/1C [Temsirolimus]
- EC50 ([1]; Homo sapiens): > 10000 nM
- DSS [1]: 11.93
- sDSSmod ([2]; EAC42): -5.1083
- sDSSmod ([3]; EAC47): -9.994
- sDSSmod [10]: -11.9329
- sDSSmod [11]: -11.9329
- sDSSmod [6]: -11.9329
- sDSSmod [12]: -11.93

SMILES: O=C(/C=C/c1ccc(CN(CCO)CCc2c[nH]c3ccccc23)cc1)NO [LAQ824]
- cytotoxicity at 6 µM [7]: 108%
- cytotoxicity at 6 µM [9]: 96.8%
- cytotoxicity at 6 µM [8]: 99%

SMILES: Cc1cc(C)cc(C(=O)NOCCCCCC(=O)NO)c1 [LMK 235]
- % cell killing /control [7]: 62.72%
- % cell killing /control [8]: 80.31%

SMILES: CN(C)Cc1c(C(=O)NCCOc2ccc(C(=O)NO)cc2)oc2ccccc12 [PCI-24781 (Abexinostat), Abexinostat]
- cytotoxicity at 6 µM [8]: 46%

SMILES: Nc1nc(=O)n([C@H]2C[C@H](O)[C@@H](CO)O2)cc1F [2'-Deoxy-5-fluorocytidine]
- cytotoxicity at 6 µM [7]: 86.8%
- cytotoxicity at 6 µM [8]: 65.2%

Source: PMC6136712, “Ex vivo drug sensitivity testing as a means for drug repurposing in esophageal adenocarcinoma” (PLoS ONE, 2018)
